Like-named read-outs stand apart in the source and are kept apart here.
Tests used:
[1] = test system: MTX-naïve adult patients with early RA (<3 years); test: Study J: SF-36 (domains, PCS, MCS) with criteria- and content-based interpretation; format: in vivo, human; design: key to mean SF-36 PCS score / SF-36 Role-Physical score / SF-36 Bodily Pain score / SF-36 General Health score / SF-36 Vitality score / SF-36 Social Functioning score / SF-36 Role-Emotional score / SF-36 Mental Health score / SF-36 PCS score / SF-36 MCS score / SF-36 Physical Functioning score: scale 0-100, higher = better health-related quality of life; conditions: for SF-36 Bodily Pain score / SF-36 General Health score / SF-36 MCS score / SF-36 Mental Health score / SF-36 PCS score / SF-36 Physical Functioning score / SF-36 Role-Emotional score / SF-36 Role-Physical score / SF-36 Social Functioning score / SF-36 Vitality score: LOCF
From the text: Study J was a 2-year, double-blind, active comparator-controlled, Phase III study conducted at many sites worldwide.
The SF-36 was used to assess the 8 domains of HRQOL—physical functioning, role-physical, bodily pain, general health, vitality, social functioning, role-emotional, and mental health. These 8 domains were aggregated into Physical Component Summary (PCS) and Mental Component Summary (MCS) scores. The SF-36 has a scale of 0-100, with higher scores indicating better health-related quality of life.
Minimum clinically important differences (MCID) are defined as improvements of 5-10 points in the individual domains scores and 2.5-5 points in the PCS and MCS^5.
All HRQOL domains were measured at baseline, and after 12, 26, 42, 52, 76, and 104 weeks of therapy. In this analysis, mean scores and mean changes in each HRQOL domain are reported, as well as the PCS and MCS, at Weeks 12 and 104. Criteria-based interpretation was used to understand the meaning of differences in PCS scores for work loss and resource use and content-based interpretation for specific SF-36 items.^4
Study J was a 2-year, double-blind, active comparator-controlled, Phase III study conducted at 149 sites in North America, Europe, and Australia. […] The SF-36 was used to assess the 8 domains of HRQOL—physical functioning, role-physical, bodily pain, general health, vitality, social functioning, role-emotional, and mental health. These 8 domains were aggregated into Physical Component Summary (PCS) and Mental Component Summary (MCS) scores. The SF-36 has a scale of 0-100, with higher scores indicating better health-related quality of life. Minimum clinically important differences (MCID) are defined as improvements of 5-10 points in the individual domains scores and 2.5-5 points in the PCS and MCS (Kosinski M, et al. Arthritis Rheum 2000:43:1478-87). All HRQOL domains were measured at baseline, and after 12, 26, 42, 52, 76, and 104 weeks of therapy. In this analysis, we report mean scores and mean changes in each HRQOL domain, as well as the PCS and MCS, at Weeks 12 and 104. We used criteria-based interpretation to understand the meaning of differences in PCS scores for work loss and resource use and content-based interpretation for specific SF-36 items (Weinblatt M E, et al. Arthritis Rheum 2003; 48:35-45).

[2] = test system: patients with long-standing RA; test: Study 4: HAQ disability index; format: in vivo, human
Protocol: (§1) Efficacy outcomes were evaluated as observed data: DAS28; ACR 20/50/70; Tender Joint Count (TJC); Swollen Joint Count (SJC); and HAQ Disability Index. Baseline demographics and disease characteristics were similar in both Study 4 and Study 5 consistent with moderate to severe RA, as shown below in Table 64: […]

[3] = test system: patients with long-standing RA; test: Study 4: tender and swollen joint counts; format: in vivo, human
Protocol: At the last visit, 24% of participants had 0 tender joints and 21% of participants had 0 swollen joints.
as §1

[4] = test system: patients with long-standing RA
[5] = test system: patients with long-standing RA; test: Study 4: CRP; format: in vivo, human
From the text: Percentage change of mean clinical improvement from baseline us describe in Table 15 below.

[6] = Baseline, percentages based on general US population norms
[7] = Week 104, percentages based on general US population norms

## CN(Cc1cnc2nc(N)nc(N)c2n1)c1ccc(C(=O)N[C@@H](CCC(=O)O)C(=O)O)cc1 [mtx alone, methotrexate]
[1]; Baseline
  SF-36 Bodily Pain score: 29.9
  SF-36 General Health score: 49.7
  SF-36 MCS score: 43.5
  SF-36 Mental Health score: 62.1
  SF-36 PCS score: 32.2
  SF-36 Physical Functioning score: 38.9
  SF-36 Role-Emotional score: 41.1
  SF-36 Role-Physical score: 16.4
  SF-36 Social Functioning score: 56.5
  SF-36 Vitality score: 37.1
[1]; [6]
  Interpretation of SF-36 PCS, Content-Based: Climb stairs: 66.4%
  Interpretation of SF-36 PCS, Content-Based: Difficulty working: 88.1%
  Interpretation of SF-36 PCS, Content-Based: Have energy: 9.7%
  Interpretation of SF-36 PCS, Content-Based: Time off work: 64.8%
  Interpretation of SF-36 PCS, Content-Based: Walk on block: 44.4%
  Interpretation of SF-36 PCS, criteria-based: Hospitalized: 10.7%
  Interpretation of SF-36 PCS, criteria-based: Job loss: 30.3%
  Interpretation of SF-36 PCS, criteria-based: MD visit: 47.7%
  Interpretation of SF-36 PCS, criteria-based: Not work: 44.1%
[1]; Week 12
  SF-36 Bodily Pain score: 51.0
  SF-36 General Health score: 58.9
  SF-36 MCS score: 49.0
  SF-36 Mental Health score: 71.2
  SF-36 PCS score: 38.3
  SF-36 Physical Functioning score: 51.1
  SF-36 Role-Emotional score: 60.5
  SF-36 Role-Physical score: 40.4
  SF-36 Social Functioning score: 72.0
  SF-36 Vitality score: 51.6
[1]; Week 104
  SF-36 Bodily Pain score: 57.0
  SF-36 General Health score: 68.3
  SF-36 MCS score: 49.9
  SF-36 Mental Health score: 72.9
  SF-36 PCS score: 41.2
  SF-36 Physical Functioning score: 58.9
  SF-36 Role-Emotional score: 64.5
  SF-36 Role-Physical score: 48.6
  SF-36 Social Functioning score: 75.5
  SF-36 Vitality score: 56.9
[1]; [7]
  Interpretation of SF-36 PCS, Content-Based: Climb stairs: 30.7%
  Interpretation of SF-36 PCS, Content-Based: Difficulty working: 51.2%
  Interpretation of SF-36 PCS, Content-Based: Have energy: 26.6%
  Interpretation of SF-36 PCS, Content-Based: Time off work: 29.8%
  Interpretation of SF-36 PCS, Content-Based: Walk on block: 21.4%
  Interpretation of SF-36 PCS, content-based: Climb stairs: 30.7%
  Interpretation of SF-36 PCS, content-based: Difficulty working: 61.2%
  Interpretation of SF-36 PCS, content-based: Have energy: 26.6%
  Interpretation of SF-36 PCS, content-based: Time off work: 29.8%
  Interpretation of SF-36 PCS, content-based: Walk on block: 21.4%
  Interpretation of SF-36 PCS, criteria-based: Hospitalized: 7.7%
  Interpretation of SF-36 PCS, criteria-based: Job loss: 20.8%
  Interpretation of SF-36 PCS, criteria-based: MD visit: 34.6%
  Interpretation of SF-36 PCS, criteria-based: Not work: 24.2%
[1]; week 12 (baseline 31.7 combination, 32.2 MTX)
  mean SF-36 PCS score: 38.3

## adalimumab: human anti-TNF mAb (HUMIRA, Abbott Laboratories), described in U.S. Pat. No. 6,090,382 as D2E7
[2]; 6 months
  HAQ, % change of mean clinical improvement from baseline: 45%
[2]; 12 months
  HAQ, % change of mean clinical improvement from baseline: 43%
[2]; 24 months
  HAQ, % change of mean clinical improvement from baseline: 47%
[2]; 36 months
  HAQ, % change of mean clinical improvement from baseline: 47%
[2]; 48 months
  HAQ, % change of mean clinical improvement from baseline: 50%
[3]; 6 months
  SJC (0-66), % change of mean clinical improvement from baseline: 58%
  TJC (0-68), % change of mean clinical improvement from baseline: 64%
[3]; 12 months
  SJC (0-66), % change of mean clinical improvement from baseline: 67%
  TJC (0-68), % change of mean clinical improvement from baseline: 69%
[3]; 24 months
  SJC (0-66), % change of mean clinical improvement from baseline: 69%
  TJC (0-68), % change of mean clinical improvement from baseline: 72%
[3]; 36 months
  SJC (0-66), % change of mean clinical improvement from baseline: 68%
  TJC (0-68), % change of mean clinical improvement from baseline: 75%
[3]; 48 months
  SJC (0-66), % change of mean clinical improvement from baseline: 61%
  TJC (0-68), % change of mean clinical improvement from baseline: 78%
[3]; end of four years
  median number of swollen joints: 3
  median number of tender joints: 2
[3]; last visit (n=846 analysis)
  participants with 0 swollen joints: 21%
  participants with 0 tender joints: 24%
[4]; all exposure
  Demyelinating disease: 0.04 E/100-PY
  Lymphoma: 0.16 E/100-PY
  Pancytopenia: 0.00 E/100-PY
  Pneumonia: 0.6 E/100-PY
  Septic arthritis: 0.12 E/100-PY
  Tuberculosis: 0.04 E/100-PY
  Urinary tract infections: 0.28 E/100-PY
[4]; all exposure, 2485 patient-years
  Serious infections: 2.62 E/100-PY
[4]; pivotal trials
  Demyelinating disease: 0.13 E/100-PY
  Lymphoma: 0.25 E/100-PY
  Pancytopenia: 0.25 E/100-PY
  Pneumonia: 1.13 E/100-PY
  Septic arthritis: 0.38 E/100-PY
  Tuberculosis: 0.13 E/100-PY
  Urinary tract infections: 0.5 E/100-PY
[4]; pivotal trials, 793 patient-years
  Serious infections: 4.16 E/100-PY
[5]; 6 months
  CRP, % change of mean clinical improvement from baseline: 14%
[5]; 12 months
  CRP, % change of mean clinical improvement from baseline: 33%
[5]; 24 months
  CRP, % change of mean clinical improvement from baseline: 29%
[5]; 36 months
  CRP, % change of mean clinical improvement from baseline: 28%
[5]; 48 months
  CRP, % change of mean clinical improvement from baseline: 37%

From patent US20120171123A1, “USES AND COMPOSITIONS FOR TREATMENT OF RHEUMATOID ARTHRITIS” (priority 2006, published 2012)
